Data from patent US10670605B2, “Cysteine reactive probes and uses thereof” (The Scripps Research Institute, priority 2015, dated 2020).

Legend:
Experiment in all cases: Competitive isoTOP-ABPP, cell lysates;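 on isoTOP-ABPP reactivity profile ratio, P09211 C48: Heavy/light ratio DMSO over fragment-treated so higher means more cysteine engagement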;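 on isoTOP-ABPP reactivity profile ratio, Q15084 C190: Heavy/light ratio DMSO over fragment-treated so higher means more cysteine engagement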
Assay type in all cases: binding
[1] = target: GSTP1 C48 (P09211) (Homo sapiens, UniProt P09211); conditions: 500 μm;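 on isoTOP-ABPP reactivity profile ratio, P09211 C48: Heavy/light ratio DMSO over fragment-treated so higher means more cysteine engagement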
[2] = target: XPO1 C34 (O14980) (Homo sapiens, UniProt O14980); conditions: 500 μm
[3] = target: T1, PDIA6 C190 (Q15084) (Homo sapiens, UniProt Q15084); conditions: 500 μm;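 on isoTOP-ABPP reactivity profile ratio, Q15084 C190: Heavy/light ratio DMSO over fragment-treated so higher means more cysteine engagement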
T1 sequence (Q15084 20-440): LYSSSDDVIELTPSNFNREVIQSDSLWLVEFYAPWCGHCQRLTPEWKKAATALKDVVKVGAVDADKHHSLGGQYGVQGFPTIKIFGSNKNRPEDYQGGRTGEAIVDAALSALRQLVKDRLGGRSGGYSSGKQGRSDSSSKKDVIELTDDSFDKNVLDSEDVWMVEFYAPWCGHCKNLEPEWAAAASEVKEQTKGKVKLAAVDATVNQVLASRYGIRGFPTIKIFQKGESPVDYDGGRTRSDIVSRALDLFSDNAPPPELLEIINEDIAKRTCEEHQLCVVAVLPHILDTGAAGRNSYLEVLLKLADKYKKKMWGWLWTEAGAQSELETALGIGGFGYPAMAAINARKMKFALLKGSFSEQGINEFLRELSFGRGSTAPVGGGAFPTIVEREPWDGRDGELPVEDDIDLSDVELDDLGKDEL

[4] = target: T2, IRF4 C194 (Q15306) (Homo sapiens, UniProt Q15306); conditions: 500 μm, in-vitro_ramos
T2 sequence (Q15306 1-451): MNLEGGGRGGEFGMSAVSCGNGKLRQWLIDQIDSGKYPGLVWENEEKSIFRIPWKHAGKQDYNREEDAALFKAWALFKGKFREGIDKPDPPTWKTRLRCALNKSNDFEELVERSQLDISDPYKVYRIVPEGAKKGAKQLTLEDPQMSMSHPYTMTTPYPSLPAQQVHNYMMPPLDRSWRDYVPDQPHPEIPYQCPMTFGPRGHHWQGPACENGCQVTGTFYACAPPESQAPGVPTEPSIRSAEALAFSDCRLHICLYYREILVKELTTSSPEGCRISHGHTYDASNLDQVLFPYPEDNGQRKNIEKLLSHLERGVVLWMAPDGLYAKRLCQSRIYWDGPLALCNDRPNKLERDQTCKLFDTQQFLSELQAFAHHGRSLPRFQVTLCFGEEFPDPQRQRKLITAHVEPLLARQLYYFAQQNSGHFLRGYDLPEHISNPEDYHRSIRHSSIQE

[5] = target: ZNF217 C286 (O75362) (Homo sapiens, UniProt O75362); conditions: 500 μm
[6] = target: T3, UBE2S C118 (Q16763) (Homo sapiens, UniProt Q16763); conditions: 500 μm
T3 sequence (Q16763 1-222): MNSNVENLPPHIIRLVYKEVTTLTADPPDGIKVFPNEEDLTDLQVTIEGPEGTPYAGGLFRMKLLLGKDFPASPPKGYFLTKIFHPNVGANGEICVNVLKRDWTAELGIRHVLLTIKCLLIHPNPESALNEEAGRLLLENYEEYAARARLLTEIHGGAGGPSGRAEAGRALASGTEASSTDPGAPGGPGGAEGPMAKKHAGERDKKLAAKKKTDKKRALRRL

[7] = target: T4, UCHL3 C95 (P15374) (Homo sapiens, UniProt P15374); conditions: 500 μm
T4 sequence (P15374 1-230): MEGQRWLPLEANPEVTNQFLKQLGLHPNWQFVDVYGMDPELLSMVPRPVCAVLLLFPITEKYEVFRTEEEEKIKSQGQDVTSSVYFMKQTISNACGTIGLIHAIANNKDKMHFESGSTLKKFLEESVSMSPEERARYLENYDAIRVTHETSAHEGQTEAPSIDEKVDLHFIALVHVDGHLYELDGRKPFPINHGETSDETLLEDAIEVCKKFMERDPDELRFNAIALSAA

[8] = target: IDH1 C269 (O75874) (Homo sapiens, UniProt O75874); conditions: 500 μm, in-vitro_ramos_231
IDH1 C269 (O75874), sequence (O75874 whole entry): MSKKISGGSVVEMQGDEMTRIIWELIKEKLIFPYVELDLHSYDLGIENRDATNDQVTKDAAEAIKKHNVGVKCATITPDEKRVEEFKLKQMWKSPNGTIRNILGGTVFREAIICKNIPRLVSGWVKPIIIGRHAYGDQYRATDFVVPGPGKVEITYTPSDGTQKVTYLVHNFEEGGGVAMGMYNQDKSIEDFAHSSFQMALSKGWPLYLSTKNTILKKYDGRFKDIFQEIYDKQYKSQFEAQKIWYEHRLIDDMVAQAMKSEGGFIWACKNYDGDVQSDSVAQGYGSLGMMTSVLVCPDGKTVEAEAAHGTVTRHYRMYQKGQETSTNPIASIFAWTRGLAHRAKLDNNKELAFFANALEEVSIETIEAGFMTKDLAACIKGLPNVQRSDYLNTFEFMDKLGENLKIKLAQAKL

GSTP1 C48 (P09211), sequence (P09211 whole entry, the tested form may be a part): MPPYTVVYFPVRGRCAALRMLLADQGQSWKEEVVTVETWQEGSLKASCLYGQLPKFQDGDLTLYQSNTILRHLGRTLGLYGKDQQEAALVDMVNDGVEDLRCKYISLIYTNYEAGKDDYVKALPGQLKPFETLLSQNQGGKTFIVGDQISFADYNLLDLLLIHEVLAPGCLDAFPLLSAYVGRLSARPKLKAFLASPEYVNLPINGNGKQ
XPO1 C34 (O14980), sequence (O14980 whole entry, the tested form may be a part): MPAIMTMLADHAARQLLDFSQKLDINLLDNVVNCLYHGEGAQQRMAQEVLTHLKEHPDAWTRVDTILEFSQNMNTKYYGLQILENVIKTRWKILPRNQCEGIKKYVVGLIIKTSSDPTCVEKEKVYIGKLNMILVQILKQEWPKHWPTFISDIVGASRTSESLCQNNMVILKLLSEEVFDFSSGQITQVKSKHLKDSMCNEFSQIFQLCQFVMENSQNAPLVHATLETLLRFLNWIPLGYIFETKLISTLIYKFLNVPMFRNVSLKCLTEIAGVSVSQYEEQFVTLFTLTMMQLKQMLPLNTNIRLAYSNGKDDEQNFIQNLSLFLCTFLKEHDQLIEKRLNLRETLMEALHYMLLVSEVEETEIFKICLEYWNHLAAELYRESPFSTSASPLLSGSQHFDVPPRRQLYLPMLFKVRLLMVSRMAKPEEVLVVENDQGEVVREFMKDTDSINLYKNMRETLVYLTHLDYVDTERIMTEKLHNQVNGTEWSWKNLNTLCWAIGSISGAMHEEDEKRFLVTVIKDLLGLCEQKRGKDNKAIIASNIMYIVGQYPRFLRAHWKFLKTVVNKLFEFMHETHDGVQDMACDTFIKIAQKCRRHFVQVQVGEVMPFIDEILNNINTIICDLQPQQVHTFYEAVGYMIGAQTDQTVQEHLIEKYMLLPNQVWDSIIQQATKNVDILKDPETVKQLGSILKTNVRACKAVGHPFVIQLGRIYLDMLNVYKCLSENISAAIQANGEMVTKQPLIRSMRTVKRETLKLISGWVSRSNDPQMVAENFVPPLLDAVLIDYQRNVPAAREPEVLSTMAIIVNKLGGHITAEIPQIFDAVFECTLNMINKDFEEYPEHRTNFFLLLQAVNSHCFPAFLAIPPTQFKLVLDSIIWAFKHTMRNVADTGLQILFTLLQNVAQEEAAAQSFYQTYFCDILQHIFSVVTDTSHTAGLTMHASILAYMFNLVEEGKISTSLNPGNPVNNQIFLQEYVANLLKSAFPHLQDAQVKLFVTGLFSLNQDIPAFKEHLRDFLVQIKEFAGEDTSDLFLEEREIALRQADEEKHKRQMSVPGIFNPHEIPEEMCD
ZNF217 C286 (O75362), sequence (O75362 whole entry): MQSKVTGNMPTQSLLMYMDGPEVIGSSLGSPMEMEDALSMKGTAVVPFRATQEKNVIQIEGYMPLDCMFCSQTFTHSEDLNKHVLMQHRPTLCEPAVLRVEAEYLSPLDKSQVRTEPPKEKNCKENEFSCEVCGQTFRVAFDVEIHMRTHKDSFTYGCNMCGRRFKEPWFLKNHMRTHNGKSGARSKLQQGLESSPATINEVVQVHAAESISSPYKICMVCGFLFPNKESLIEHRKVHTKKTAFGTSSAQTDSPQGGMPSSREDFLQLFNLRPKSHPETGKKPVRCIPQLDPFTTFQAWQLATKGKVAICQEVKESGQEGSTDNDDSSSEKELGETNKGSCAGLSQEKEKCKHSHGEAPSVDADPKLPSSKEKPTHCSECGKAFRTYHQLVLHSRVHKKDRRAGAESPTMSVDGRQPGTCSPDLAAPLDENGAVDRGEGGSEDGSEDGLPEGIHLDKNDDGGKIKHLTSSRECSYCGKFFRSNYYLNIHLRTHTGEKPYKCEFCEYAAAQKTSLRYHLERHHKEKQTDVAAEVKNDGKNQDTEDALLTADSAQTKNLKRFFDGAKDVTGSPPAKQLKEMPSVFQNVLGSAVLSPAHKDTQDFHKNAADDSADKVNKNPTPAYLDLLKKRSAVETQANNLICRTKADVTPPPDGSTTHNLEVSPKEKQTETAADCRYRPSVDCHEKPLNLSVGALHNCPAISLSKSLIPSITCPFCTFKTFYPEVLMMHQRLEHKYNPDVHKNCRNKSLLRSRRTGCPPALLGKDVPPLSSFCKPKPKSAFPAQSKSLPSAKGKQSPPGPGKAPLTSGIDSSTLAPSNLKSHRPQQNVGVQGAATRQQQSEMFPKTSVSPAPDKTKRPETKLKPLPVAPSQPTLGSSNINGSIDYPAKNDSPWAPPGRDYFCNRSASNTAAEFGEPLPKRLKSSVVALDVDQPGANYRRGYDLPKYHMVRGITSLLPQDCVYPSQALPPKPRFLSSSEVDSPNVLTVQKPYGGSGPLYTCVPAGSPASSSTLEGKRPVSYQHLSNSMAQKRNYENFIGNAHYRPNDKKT

| SMILES | isoTOP-ABPP reactivity ratio, P09211_C48 ([1]; in-vitro_ramos) | isoTOP-ABPP reactivity ratio, O14980_C34 ([2]; in-vitro_ramos) | isoTOP-ABPP reactivity profile ratio, P09211_C48 ([1]; in-vitro_ramos) | isoTOP-ABPP reactivity profile ratio, Q15306_C194 [4] | isoTOP-ABPP reactivity profile ratio, O14980_C34 ([2]; in-vitro_ramos) | isoTOP-ABPP reactivity profile ratio, P09211_C48 ([1]; in-vitro_ramos_231) | isoTOP-ABPP reactivity profile ratio, O14980_C34 ([2]; in-vitro_ramos_231) | isoTOP-ABPP reactivity profile ratio, O75362_C286 ([5]; in-vitro_ramos_231) | isoTOP-ABPP reactivity profile ratio, O75874_C269 [8] | isoTOP-ABPP reactivity profile ratio, Q16763_C118 ([6]; in-vitro_ramos_231) | isoTOP-ABPP reactivity profile ratio, P15374_C95 ([7]; in-vitro_ramos_231) | other results |
| --- | --- | --- | --- | --- | --- | --- | --- | --- | --- | --- | --- | --- |
| C=CC(=O)N1CCC(c2noc3ccc(F)cc23)CC1 [compound 37] | 1.2 | 0.9 | – | – | – | – | – | – | – | – | – | isoTOP-ABPP reactivity ratio, Q15306_C194 [4]: 0.9; isoTOP-ABPP reactivity ratio, O75362_C286 ([5]; in-vitro_ramos): 0.9; isoTOP-ABPP reactivity ratio, Q15084_C190 ([3]; in-vitro_ramos): 1.1 |
| C=CC(=O)N(c1ccccc1)C1CCCCC1 [compound 46] | – | – | – | – | – | 1.0 | 1.0 | 0.9 | 0.6 | 1.0 | 1.0 | isoTOP-ABPP reactivity profile ratio, Q15084_C190 ([3]; in-vitro_ramos_231): 0.9 |
| O=C(CCl)Nc1cccc2ncccc12 [compound 51] | – | – | 1.0 | 1.4 | 1.0 | 1.1 | 0.9 | 0.9 | – | – | – | isoTOP-ABPP reactivity profile ratio, Q16763_C118 ([6]; in-vitro_ramos): 0.9; isoTOP-ABPP reactivity profile ratio, P15374_C95 ([7]; in-vitro_ramos): 0.9; isoTOP-ABPP reactivity profile ratio, O75362_C286 ([5]; in-vitro_ramos): 20.0; isoTOP-ABPP reactivity profile ratio, Q15084_C190 ([3]; in-vitro_ramos): 5.6 |
| O=C(CCl)Nc1ccc(-c2ccccc2)cc1 [compound 52] | – | – | 1.9 | 1.4 | 1.1 | 1.0 | 1.0 | 1.0 | – | 1.2 | 1.2 | isoTOP-ABPP reactivity profile ratio, Q15084_C190 ([3]; in-vitro_ramos): 1.9; isoTOP-ABPP reactivity profile ratio, Q15084_C190 ([3]; in-vitro_ramos_231): 1.0 |

Continued, in another order:

| isoTOP-ABPP reactivity ratio, P09211_C48 ([1]; in-vitro_ramos) | isoTOP-ABPP reactivity ratio, O14980_C34 ([2]; in-vitro_ramos) | isoTOP-ABPP reactivity profile ratio, P09211_C48 ([1]; in-vitro_ramos) | isoTOP-ABPP reactivity profile ratio, Q15306_C194 [4] | isoTOP-ABPP reactivity profile ratio, O14980_C34 ([2]; in-vitro_ramos) | isoTOP-ABPP reactivity profile ratio, P09211_C48 ([1]; in-vitro_ramos_231) | isoTOP-ABPP reactivity profile ratio, O14980_C34 ([2]; in-vitro_ramos_231) | isoTOP-ABPP reactivity profile ratio, O75362_C286 ([5]; in-vitro_ramos_231) | isoTOP-ABPP reactivity profile ratio, O75874_C269 [8] | isoTOP-ABPP reactivity profile ratio, Q16763_C118 ([6]; in-vitro_ramos_231) | isoTOP-ABPP reactivity profile ratio, P15374_C95 ([7]; in-vitro_ramos_231) | SMILES | other results |
| --- | --- | --- | --- | --- | --- | --- | --- | --- | --- | --- | --- | --- |
| 1.0 | 1.1 | – | – | – | – | – | – | – | – | – | O=C(CCl)N(Cc1ccc(F)cc1)C12CC3CC(CC(C3)C1)C2 [compound 34] | isoTOP-ABPP reactivity ratio, P09211_C48 ([1]; in-vitro_ramos_231): 0.8; isoTOP-ABPP reactivity ratio, O14980_C34 ([2]; in-vitro_ramos_231): 0.8; isoTOP-ABPP reactivity ratio, Q15084_C190 ([3]; in-vitro_ramos_231): 0.9 |
| 1.3 | 1.3 | – | – | – | – | – | – | – | – | – | O=C(CCl)Nc1ccccc1C1CCCCCC1 [compound 35] | isoTOP-ABPP reactivity ratio, P09211_C48 ([1]; in-vitro_ramos_231): 0.7; isoTOP-ABPP reactivity ratio, Q15306_C194 [4]: 1.0; isoTOP-ABPP reactivity ratio, O14980_C34 ([2]; in-vitro_ramos_231): 0.8; isoTOP-ABPP reactivity ratio, Q15084_C190 ([3]; in-vitro_ramos_231): 0.9 |
| – | – | 0.7 | 1.2 | 0.9 | – | – | – | – | – | – | N#CC(=Cc1ccc(-c2ccccc2Cl)o1)C(N)=O [compound 42] | isoTOP-ABPP reactivity profile ratio, Q16763_C118 ([6]; in-vitro_ramos): 0.8; isoTOP-ABPP reactivity profile ratio, P15374_C95 ([7]; in-vitro_ramos): 0.9; isoTOP-ABPP reactivity profile ratio, O75362_C286 ([5]; in-vitro_ramos): 1.0 |
| – | – | – | – | – | 19.7 | 1.8 | 20.0 | 20.0 | – | – | CC1CCc2ccccc2N1C(=O)CCl (stereo not shown) [compound 45] | – |
| – | – | – | – | – | 2.3 | 1.2 | – | 20.0 | 0.8 | 1.3 | O=C(CCl)N1CCc2cc(Br)ccc21 [compound 50] | – |
